These results are taken from publication PMC6609034, “Unraveling the role of the secretor antigen in human rotavirus attachment to histo-blood group antigens” (PLoS Pathogens, 2019).

The subject of assay [1] is VP8* P[8]c binding to the H1 antigen. Nature of the assay: Binding blocking assay, immobilized H1 antigen. Further details: species or system human rotavirus. As to conditions: soluble sugar at 20 mM. Here is the method:
To confirm the binding of the VP8* from the P[8] genotype to the H type-1 precursor LNB, a blocking assay was performed using soluble LNB and its related disaccharide galacto-N-biose (Gal-β-1,3-GalNAc; GNB) produced and purified in our laboratory as previously described.
Streptavidin microtiter plates were coated with biotinylated H type-1 antigen or LNB at 2 μg/ml with water and incubated for 1 hour at 37°C, followed by an overnight incubation at 4°C. Blocking assays were performed in parallel, using glass tubes containing the P[8]c and P[8]Wa VP8* protein at their EC50 for each ligand and 20 mM of each of the soluble disaccharides (LNB and GNB) and monosaccharides (D-galactose, GlcNAc and GalNAc). A positive binding control without sugar was also included. The tubes containing the mixes of VP8* with sugars were maintained 1 hour at 37°C, followed by an overnight incubation at 4°C. The next day the coated streptavidin plates were washed with PBS-T, the VP8*-sugar solutions were added to the plates and incubated during 4 hours at 4°C. The plates were washed three times with PBS-T and detection of the interactions was performed as described above. The results are presented as the percentage (%) of binding of each condition compared to the binding of the positive binding control (without blocking sugar). All experiments were performed in triplicate.

For assay [2], the system named is rotavirus Wa strain (G1P[8]) in MA104 cells. Description: Blocking of rotavirus infection in MA104 cells (fluorescent focus assay). It counts as cell-based, human rotavirus. As to conditions: sugar at 5 mg/mL. How it is done: The G1P[8] Wa strain was tested on MA104 cells. The sugars LNB, GNB, GlcNAc, GalNAc, D-galactose and L-fucose were tested for their effect on rotavirus infectivity. The oligosaccharides were previously heat sterilized at 99°C for 10 min and then dissolved in serum-free DMEM containing 1 μg/ml trypsin. Serum-free DMEM containing […] oligosaccharide was used as a control in each experiment.
The effect of different mono- and disaccharides on rotavirus infectivity was assessed through standard fluorescent focus assays on MA104 cells. The dilution of Wa virus stocks that yielded ~150 focus-forming units/well was first established. Then, sugars were added during virus inoculation at a final concentration of 5 mg/ml, incubated for 1 hour, and unbound virus was removed by washing with FBS-DMEM. The cells were allowed to be infected for 16h, washed once with PBS and fixed with 100% methanol. A mouse anti-VP6 primary antibody (1:50 dilution in PBS containing 3% BSA) was added and incubation proceeded for 30 min at room temperature with gentle rotation. […] Individual fluorescence foci were counted on an inverted fluorescence microscope with a FITC-compatible filter. […] Virus titer measured in the absence of oligosaccharides was considered to be 100% infectivity, and changes in virus titer in the presence of sugars were expressed as percentage of infectivity compared with no sugar treatment.

With `CC(=O)NC1C(O)OC(CO)C(O)C1OC1OC(CO)C(O)C(O)C1O` (stereo not drawn) [LNB, Gal-β1,3-GlcNAc], in assay [1], the “reduction in the binding to the H1 antigen” value was 24.2%. The “reduction of viral infection” value in assay [2] was 33%.
